Test results reported in patent publication US20030059451A1, “Use of orally administered dehydroepiandrosterone, precursors and derivatives thereof in order to improve the papery aspect of the skin” (priority 2000, published 2003).

Columns and labels:
Type in all cases: in vivo, healthy volunteers (men and women)
[1] = test system: healthy volunteers, of both sexes, 60 to 80 years old; test: Clinical evaluation of the weathered (papyrus-like) appearance of the skin, randomized double-blind study versus placebo; conditions: 12 months; for variation in the weathered (papyrus-like) appearance relative to T0 (clinical score 0 to 9): back of a hand, 50 mg/day orally, FIG. 1
Experimental: (§1) The evaluation was carried out using a randomized double-blind clinical study on 70 individuals (35 men and 35 women). The inclusion criteria were as follows: healthy volunteers, of both sexes, free of any severe pathological condition and 60 to 80 years old.
(§2) The treatment consisted, for 12 months, of a daily dose of 50 mg of DHEA, taken in the morning, in the form of a breakable tablet, for half the individuals, or as a placebo for the other half of the individuals.
The weathered (papyrus-like) appearance is evaluated clinically, blind, on the back of a hand at the start of treatment (T0) and at the end of treatment (T12), by the same clinician.
The weathered (papyrus-like) appearance is represented by a clinical score ranging from 0 (weathered appearance absent or only very slightly noticeable) to 9 (very marked weathered appearance).
(§3) The statistical analysis is performed using the Wilcoxon test.

[2] = test system: healthy volunteers, of both sexes, 60 to 80 years old; test: Elasticity of the skin measured with the Derma Torque Meter, randomized double-blind study versus placebo; conditions: for Elasticity of the skin of the forearm (ratio of extensibility to recovery): ventral side of the forearm
Experimental: as §1, §2
The elasticity of the skin was evaluated with the Derma Torque Meter® (DTM® Dia-Stron Limited, Andover, Hampshire, United Kingdom). The biomechanical properties (elasticity) of the skin of the ventral side of the forearm is measured. The DTM® makes it possible to study the response of the skin to a deformation applied in the direction parallel to its surface. The rotation of a disk stuck to the skin is measured and the elasticity of the skin is thus evaluated, which is one of the best markers of aging (Escoffier C. et al. (1989), J. Invest. Dermatol., 93, 353-357).
The elasticity is expressed as the ratio of extensibility to recovery.
as §3

[3] = test system: healthy volunteers, of both sexes, 60 to 80 years old; test: Clinical evaluation of the slackening of the skin, randomized double-blind study versus placebo; conditions: for Slackening of the skin of the forearm (clinical score 0 to 9): ventral side of the forearm
Experimental: as §1, §2
The slackening of the skin is evaluated clinically, blind, on the ventral side of the forearm and on the skin of the face at the start of treatment (T0) and at the end of treatment (T12), by the same clinician. The slackening of the skin is represented by a clinical score ranging from 0 (slight or hardly noticeable slackening) to 9 (very marked slackening). The statistical analysis is performed using the Wilcoxon test.

[4] = after treatment with DHEA administered orally, 50 mg/day, 12 months

C[C@]12CC[C@H](O)CC1=CC[C@@H]1[C@@H]2CC[C@]2(C)C(=O)CC[C@@H]12 [DHEA, dehydroepiandrosterone]
variation in the weathered (papyrus-like) appearance relative to T0 (clinical score 0 to 9) ([1]; group of men): avoid this degradation
variation in the weathered (papyrus-like) appearance relative to T0 (clinical score 0 to 9) ([1]; group of women, significant relative to placebo (p=0.005)): decrease in the mean scores
effect on the weathered (papyrus-like) appearance of the skin ([1]; overall conclusion, after oral administration, 50 mg/day): improves the weathered (papyrus-like) appearance of the skin
Elasticity of the skin of the forearm (ratio of extensibility to recovery) ([2]; T0 (start of treatment)): 0.36
Elasticity of the skin of the forearm (ratio of extensibility to recovery) ([2]; T12 (end of treatment), 50 mg/day orally, 12 months, Wilcoxon P = 0.55): 0.31
variation in the elasticity of the skin after treatment [2, 4]: do not significantly vary
Slackening of the skin of the face (clinical score 0 to 9) ([3]; T0 (start of treatment)): 6.69
Slackening of the skin of the forearm (clinical score 0 to 9) ([3]; T0 (start of treatment)): 5.44
Slackening of the skin of the face (clinical score 0 to 9) ([3]; T12 (end of treatment), 50 mg/day orally, 12 months, Wilcoxon P = 0.5): 6.81
Slackening of the skin of the forearm (clinical score 0 to 9) ([3]; T12 (end of treatment), 50 mg/day orally, 12 months, Wilcoxon P = 0.15): 7.19
variation in the slackening of the skin after treatment [3, 4]: do not significantly vary
